Data reported in PMC5733478, “A Non-imaging High Throughput Approach to Chemical Library Screening at the Unmodified Adenosine-A3 Receptor in Living Cells” (Frontiers in Pharmacology, 2017).
Where a name gives a salt, the structure may show the parent alone. Read-outs that look alike come from different tables or passages of the source.

Target: T1, human A3AR (Homo sapiens, UniProt P0DMS8)
T1 construct: expressed in transfected cells
T1 sequence (P0DMS8 1-318): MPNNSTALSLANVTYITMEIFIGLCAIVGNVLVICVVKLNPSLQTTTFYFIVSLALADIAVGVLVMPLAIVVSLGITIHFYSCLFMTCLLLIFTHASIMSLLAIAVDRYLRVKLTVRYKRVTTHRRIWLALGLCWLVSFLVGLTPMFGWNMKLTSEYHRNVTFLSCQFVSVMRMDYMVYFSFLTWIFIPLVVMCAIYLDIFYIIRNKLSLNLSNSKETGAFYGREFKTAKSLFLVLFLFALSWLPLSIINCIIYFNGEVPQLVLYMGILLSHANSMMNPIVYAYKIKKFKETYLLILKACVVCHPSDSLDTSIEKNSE
Assay: LOPAC library primary screen: single concentration (10 μM) inhibition of 25 nM CA200645 binding, PHERAstar FS

[1] = % of control wells (1% DMSO and 25 nM CA200645), compounds at 10 µM, whole live cells expressing the A3AR, mean ± SD, three experiments in duplicate

Compound | % 25 nM CA200645 binding | also measured
CCCN1CCC[C@@H]2Cc3nc(N)ncc3C[C@H]21.Cl.Cl [Quinelorane dihydrochloride] | 105.7 ± 9.9% | –
C[C@@H](c1ncncc1F)[C@](O)(Cn1cncn1)c1ccc(F)cc1F [Voriconazole] | 96.1 ± 10.4% | –
CCn1cc(C(=O)O)c(=O)c2cc3c(cc21)OCO3 [Oxolinic acid] | 101.1 ± 12.4% | –
C#CCN(C)Cc1ccccc1 [Pargyline hydrochloride] | 102.9 ± 12.8% | –
CC1=C(CC(=O)O)c2cc(F)ccc2/C1=C\c1ccc(S(C)(=O)=O)cc1 [Sulindac sulfone] | 84.5 ± 13.2% | –
CN1CCC(=C2c3ccccc3CC(=O)c3sccc32)CC1 [Ketotifen fumarate] | 93.8 ± 4.0% | –
CS(=O)(=O)O.Cn1cc(C(F)(F)F)nc1-c1ccc(OCC(O)CNCCOc2ccc(O)c(C(N)=O)c2)cc1 (stereo not shown) [CGP 20712A methanesulfonate] | 106.4 ± 13.7% | –
NC(=O)OCC(COC(N)=O)c1ccccc1 [Felbamate] | 98.7 ± 4.1% | –
O=C(O)C1=CCCNC1 [Guvacine hydrochloride] | – | % 25 nM CA200645 binding [1]: 99.3 ± 14.1%
CC(C)(C)c1ccc(C(O)CCCN2CCC(C(O)(c3ccccc3)c3ccccc3)CC2)cc1 (stereo not shown) [Terfenadine] | 101.9 ± 5.3% | –
N[C@@H](C(=O)N[C@@H]1C(=O)N2C(C(=O)O)=C(Cl)CS[C@H]12)c1ccccc1 [Cefaclor] | 79.3 ± 20.7% | –
O=[N+]([O-])c1cc(O)c(O)c([N+](=O)[O-])c1 [3,5-Dinitrocatechol] | 100.0 ± 11.8% | –
CC1CCN(CC[C@H]2CCCN2S(=O)(=O)c2cccc(O)c2)CC1.Cl [SB 269970 hydrochloride] | 93.6 ± 22.9% | –
NCCc1c[nH]c2ccc(O)cc12 [Serotonin hydrochloride] | 95.8 ± 9.3% | –
COc1cc2nc(N3CCCN(C)CC3)nc(NC3CCN(Cc4ccccc4)CC3)c2cc1OC [BIX 01294 trihydrochloride hydrate] | 97.9 ± 21.2% | –
CCN1CCc2nc(N)oc2CC1.Cl.Cl [B-HT 933 dihydrochloride] | 90.5 ± 9.0% | –
C[N+](C)(C)CCCCCC[N+](C)(C)C.[Cl-].[Cl-] [Hexamethonium dichloride] | 100.8 ± 9.2% | –
Cn1c(=O)[nH]c2ncn(C)c2c1=O [1,7-Dimethylxanthine] | 100.9 ± 19.4% | –
CCCCCCCCCCC/C=C\C(C)(C)/C=C\CCCC(=O)O [7,7-Dimethyl-(5Z,8Z)-eicosadienoic acid] | 100.3 ± 12.4% | –
NC(=NCc1ccccc1)NC(=O)c1nc(Cl)c(N)nc1N [Benzamil hydrochloride] | 95.3 ± 5.6% | –
CSc1ccc2c(c1)N(CCC1CCCCN1C)c1ccccc1S2 (stereo not shown) [Thioridazine hydrochloride] | 102.5 ± 9.6% | –
CCOC(=O)[C@]12CC1/C(=N\O)c1ccccc1O2 (mixture of isomers) [CPCCOEt] | – | % 25 nM CA200645 binding [1]: 88.3 ± 3.9%
S(-)-UH-301 hydrochloride | 106.6 ± 12.1% | –

Compound | % 25 nM CA200645 binding | also measured
Cc1cn([C@H]2C=C[C@@H](CO)O2)c(=O)[nH]c1=O [2',3'-didehydro-3'-deoxythymidine] | 82.1 ± 11.9% | –
Cl.NO [Hydroxylamine hydrochloride] | 99.3 ± 3.4% | –
CN1C[C@H](O)[C@@H](O)[C@H](O)[C@H]1CO [N-Methyl-1-deoxynojirimycin] | 100.7 ± 20.9% | –
CNC(=O)[C@H]1O[C@@H](n2cnc3c(NCc4ccc(N)cc4)ncnc32)[C@H](O)[C@@H]1O [AB-MECA, reference compound] | 48.5 ± 9.1% | % Total CA200645 binding (% of 25 nM CA200645 binding in the presence of 10 μM compound, LOPAC full screen, A3AR CHO cells): 49.5 ± 5.8%
CC(C)(C)c1cc(/C=C(\C#N)C(N)=S)cc(C(C)(C)C)c1O [Tyrphostin AG 879] | 57.5 ± 23.0% | –
O=C1CCc2cc(OCCCCc3nnnn3C3CCCCC3)ccc2N1 [Cilostazol] | 105.8 ± 41.7% | –
Nc1nc2ccc(Cl)cc2n2c(-c3ccccc3)nnc12 [CP-66713] | 93.9 ± 10.2% | –
O=c1cc(O)cc(/C=C/c2ccc(O)c(O)c2)o1 [Hispidin] | 77.8 ± 19.6% | –
CC(C)(C)NCC(O)c1ccc(O)c(CO)c1.CC(C)(C)NCC(O)c1ccc(O)c(CO)c1.O=S(=O)(O)O (stereo not shown) [Albuterol hemisulfate] | 97.4 ± 12.0% | –
Br.CCCN(CCC)C1CCc2ccc(O)cc2C1 (racemic) [(±)-7-Hydroxy-DPAT hydrobromide] | 98.0 ± 1.6% | –
CNC(=O)Oc1ccc2c(c1)[C@]1(C)CCN(C)[C@@H]1N2C [(-)-Physostigmine] | 99.3 ± 6.1% | –
10058-F4 | 75.9 ± 8.5% | –
COc1cc(N)c(Cl)cc1C(=O)OCCN1CCCCC1 [ML 10302] | 105.8 ± 6.4% | –
O=C(O)CCC(=O)O.c1ccc(C2(c3ccccc3)CC2C2=NCCN2)cc1 (stereo not shown) [Cibenzoline succinate] | 95.2 ± 7.2% | –
CC(=O)N[C@@H](CS)C(=O)O [N-Acetyl-L-Cysteine] | 100.3 ± 0.2% | –
Cc1nc2c(OCc3ccccc3)cccn2c1CC#N [SCH-28080] | 97.5 ± 14.8% | –
Nc1ccc(N2C(=O)c3ccccc3C2=O)c(Cl)c1 [N-(4-Amino-2-chlorophenyl)phthalimide] | 91.1 ± 7.1% | –
CCCCC1(C2CCCC2)Cc2cc(OCC(=O)O)c(Cl)c(Cl)c2C1=O (stereo in doubt) [R(+)-Butylindazone] | 91.2 ± 11.8% | –
CNC[C@H](O)c1ccc(O)c(O)c1 [(-)-Epinephrine bitartrate] | 100.5 ± 6.3% | –
CN(C)CCC=C1c2ccccc2C=Cc2ccccc21 [Cyclobenzaprine hydrochloride] | 85.3 ± 24.5% | –
Cn1c(=O)c2[nH]c(-c3ccc(S(=O)(=O)O)cc3)nc2n(C)c1=O [8-(p-Sulfophenyl)theophylline] | 97.2 ± 13.7% | –
C=CCN1C[C@H](C)N([C@H](c2ccc(C(=O)N(CC)CC)cc2)c2cccc(OC)c2)C[C@H]1C [SNC80] | 94.8 ± 9.3% | –
CNc1ncnc2c1ncn2[C@@H]1O[C@H](CO)[C@@H](O)[C@H]1O [N6-Methyladenosine] | 61.1 ± 11.7% | –

Compound | % 25 nM CA200645 binding | also measured
Nc1ccc(CCN2CCN(c3cccc(C(F)(F)F)c3)CC2)cc1 [PAPP] | 95.6 ± 9.9% | –
CCCCCCCCCCCCCCC[C@H](O)[C@H](N)CO (racemic) [DL-erythro-Dihydrosphingosine] | 98.5 ± 11.2% | –
CC(C)(C)NCC(O)c1ccccc1Cl (stereo not shown) [Tulobuterol hydrochloride] | 99.9 ± 4.7% | –
Cl.NNC(N)=O [Semicarbazide hydrochloride] | 98.7 ± 22.6% | –
C=C(C)[C@H]1Cc2c(ccc3c2O[C@@H]2COc4cc(OC)c(OC)cc4[C@@H]2C3=O)O1 [Rotenone] | 92.4 ± 12.1% | –
Cc1cc(NC2CCCCC2)nc(-n2nc(C)cc2C)n1 [CyPPA] | 68.8 ± 15.9% | –
Cl.Fc1ccc(CN(C2=NCCN2)c2c(Cl)cccc2Cl)cc1 [IMID-4F hydrochloride] | 97.3 ± 5.7% | –
CSc1nc(N)c2ncn([C@@H]3O[C@H](COP(=O)([O-])OP(=O)([O-])[O-])[C@@H](O)[C@H]3O)c2n1.O.[Na+].[Na+].[Na+] | 100.3 ± 5.3% | –
COc1ccc(Cl)cc1C(=O)NCCc1ccc(S(=O)(=O)NC(=O)NC2CCCCC2)cc1 [Glybenclamide] | 92.8 ± 16.7% | –
CCOC(=O)C1=C(O)C(=O)N(Cc2ccccc2)C1 [EBPC] | 98.2 ± 13.5% | –
CC[C@@H](CO)NC(=O)[C@@H]1C=C2c3cccc4c3c(cn4C)C[C@H]2N(C)C1 [Methysergide maleate] | 92.3 ± 21.2% | –
C=CC(N)CCC(=O)O (racemic) [(±)-gamma-Vinyl GABA] | 96.9 ± 7.5% | –
CN(CCCOc1ccc(Cc2ccccc2)cc1)CCC(=O)O.Cl [SC-57461A] | 83.2 ± 13.1% | –
NC(=O)C1=CN([C@@H]2O[C@H](COP(=O)([O-])OP(=O)([O-])OC[C@H]3O[C@@H](n4cnc5c(N)ncnc54)[C@H](OP(=O)([O-])[O-])[C@@H]3O)[C@@H](O)[C@H]2O)C=CC1.[Na+].[Na+].[Na+].[Na+] [NADPH tetrasodium] | 112.0 ± 13.1% | –
CCCN(CCC)C1Cc2cc(OC)c(OC)cc2C1.O=C(O)/C=C\C(=O)O [U-99194A maleate] | 101.3 ± 8.9% | –
COc1cccc(NC(=O)/C=C/c2ccc(Cl)cc2)c1 [SB-366791] | 92.0 ± 7.1% | –
CN1CCC[C@@H]1Cc1c[nH]c2ccc(Nc3ncccc3[N+](=O)[O-])cc12 [CP-135807] | 96.1 ± 6.8% | –
O=c1c2ccccc2nc2n1CCc1c-2[nH]c2ccccc12 [Rutaecarpine] | 34.3 ± 2.1% | –
Nc1nc2c(ncn2[C@@H]2O[C@H](CO)[C@@H](O)[C@@H]2O)c(=O)[nH]1.O [Ara-G hydrate] | 96.8 ± 6.9% | –
C[C@@H](O)[C@H]1C(=O)N2C(C(=O)O)=C(SCCN=CN)C[C@H]12 [Imipenem monohydrate] | 96.8 ± 2.2% | –
CC[N+](CC)(CC)CCOc1ccc(/C=C/c2ccccc2)cc1 [MG 624] | 106.9 ± 11.5% | –
C=C[C@@]1(C)CC(=O)[C@]2(O)[C@@]3(C)[C@@H](O)CCC(C)(C)[C@@H]3[C@H](O)[C@H](OC(C)=O)[C@@]2(C)O1 [Forskolin] | 100.9 ± 7.2% | –
NCCCNCCCCNCCCN [Spermine tetrahydrochloride] | 105.8 ± 16.0% | –
